What follows are molecules tested on HT-29 cells (assay: Cellular RIP1 inhibitory activity: necroptosis of HT-29 cells induced by TNF-α/SMAC mimetic/zVAD-FMK, CellTiter-Glo viability). Conditions: Homo sapiens, HT-29, 20 h, read-out: EC50 (Cell activity; Necrosis or Necroptosis Inhibitory Activity).
Assay type: cell-based
Protocol: In Table 2, activity is provided as follows: +++=0.1 nM≤EC50<100 nM; ++=100 nM≤EC50K<1000 nM; +=1000 nM≤EC50K<10000 nM.
Compounds 1-67 (denoted as Compound Nos. 1 through 67 in Table 1) of the disclosure were tested for binding and cellular RIP1 inhibitory activity following the experimental procedures described below.
Cell line: HT-29 (ATCC® HTB-38™)
Culture medium: McCOY's 5A, Gibco, Cat No. 16600-082
DMSO: Sigma, Cat No. 67-68-5, 1 L
Assay plate: Corning #3903
Compound dilution plate: Corning #3357
Inducers: TNFα, GenScript, Cat No. Z01001-50,
SmacM, Cat. No., HY-15989, MedChemExpress (MCE)
Z_VAD FMK, TargetMol, T6013
Cell Titer-Glo® Luminescent Cell Viability Assay Kit: Promega, Cat No. G7573
1. HT-29 cells were checked every day to make sure that they were healthy and growing as expected. They were subjected to sub-culturing when they were approximately 80% confluent.
2. The culture medium, McCOY's 5A medium (Gibco, Cat No. 16600-082) with 10% fetal bovine serum or FBS (Gibco, Cat No. 10099-141C), was pre-warmed in a 37° C. water bath for at least 30 min.
3. When the cells had reached a desired level of confluency of 80% in a T75 flask, the medium was aspirated, and the cells were washed with warm phosphate buffered saline or PBS two times.
4. 2-3 ml fresh warm trypsin (Gibco, Cat No. 25200-056) solution was added to the washed cells. The flask with the cells was transferred to a 37° C. incubator.
5. After 5 minutes, the side of the flask was tapped, and the flask was examined under a microscope for detachment of the cells to the flask. If necessary, the cells were kept in the incubator for an additional 5-10 minutes, with occasional tapping, until lifting was complete.
6. The trypsin reaction was neutralized by transferring 6-9 ml cell culture medium to sterile 15 ml conical tubes, and by centrifuging the cell culture at 300×g for 7 minutes to pellet the cells (supernatant decanted).
7. The cells were resuspended in fresh cell culture medium and the cell counting was performed using a hemocytometer.
8. 100 μl of the resuspended cell culture medium containing ˜5,000 cells were transferred into each well of the sterile 96-well cell culture plate (Corning 3903) and cultured overnight at 37° C. with 5% CO2.
Compound Titration and Treatment
1. All test compounds were dissolved in DMSO (Dimethyl sulfoxide) to create a 20 mM stock.
2. 3 μl of each compound 20 mM stock was mixed with 27 μl DMSO, and the compound solution was further diluted at a titration ratio of 1:3 (20 μl compound solution+40 μl DMSO) till the 10 points end.
3. All culture medium was removed from assay plates filled with HT-29 cell cultures. The cells were then washed with 1 PBS, and resuspended in fresh, FBS-free McCOY's 5A medium containing a cocktail of TNF-α (10 ng/ml), a SMAC mimetic compound (6 μM) and Z-VAD-fluoromethylketone or zVAD-FMK (10 μM) to stimulate the HT-29 cells to increase RIP1 kinase levels and necroptosis.
4. 0.5 μL of the diluted compound solution was added to the corresponding 96-well assay plates.
5. The assay plates were incubated for 20 hours at 37° C. with 5% CO2.
1. The CellTiter-Glo® Luminescent Cell Viability Assay was employed to detect the ATP levels of viable HT-29 cells.
2. The CellTiter-Glo® buffer and the lyophilized substrate were equilibrated to room temperature prior to use.
3. The CellTiter-Glo® substrate was resuspended with CellTiter-Glo® buffer, then mixed by gently vortexing to obtain a homogeneous solution.
4. 20 μl the enzyme/substrate mixture was transferred by multi-channel pipetting into 96-well assay plates.
5. The assay plates were placed on an orbital shaker and the contents were shaken for 3 minutes to induce cell lysis.
6. The assay plates were incubated at room temperature for 10 minutes to stabilize the luminescent signal.
7. The luminescence signals were read and recorded with EnVision.
8. The geometric mean EC50 values were calculated from 10 points response dose with duplicates. […]

Row | Compound | EC50
1 | CCNC(=O)c1ccnc(N2CCN(C(=O)N3N=CC[C@H]3c3cc(F)cc(F)c3)CC2)n1 [Compound 35, (S)-2-(4-(5-(3,5-difluorophenyl)-4,5-dihydro-1H-pyrazole-1-carbonyl)piperazin-1-yl)-N-ethylpyrimidine-4-carboxamide] | 0.0001 to 0.1 µM

Same assay, conditions: Homo sapiens; HT-29 cells; TNF-α 10 ng/ml, SMAC mimetic 6 μM, zVAD-FMK 10 μM; 20 hours; geometric mean, 10 points, duplicates; read-out: EC50 (Cell activity; Necrosis or Necroptosis Inhibitory Activity)

Row | Compound | EC50
2 | CN(C)[C@@H]1CCN(C(=O)c2nc(N3CCN(C(=O)N4N=CC[C@H]4c4cc(F)cc(F)c4)CC3)ncc2F)C1 [Compound 32, ((S)-5-(3,5-difluorophenyl)-4,5-dihydro-1H-pyrazol-1-yl)(4-(4-((R)-3-(dimethylamino)pyrrolidine-1-carbonyl)-5-fluoropyrimidin-2-yl)piperazin-1-yl)methanone] | 0.0001 to 0.1 µM
3 | NC(=O)c1nc(N2CCN(C(=O)N3N=CC[C@H]3c3cc(F)cc(F)c3)CC2)ncc1F [Compound 48, (S)-2-(4-(5-(3,5-difluorophenyl)-4,5-dihydro-1H-pyrazole-1-carbonyl)piperazin-1-yl)-5-fluoropyrimidine-4-carboxamide] | 0.0001 to 0.1 µM
4 | COC1CN(C(=O)c2nc(N3CCN(C(=O)N4N=CC[C@H]4c4cncc(Cl)c4)CC3)ncc2Cl)C1 (stereo in doubt) [Compound 65, (5-chloro-2-(4-(5-(5-chloropyridin-3-yl)-4,5-dihydro-1H-pyrazole-1-carbonyl)piperazin-1-yl)pyrimidin-4-yl)(3-methoxyazetidin-1-yl)methanone] | 0.0001 to 0.1 µM
5 | CC1(O)CN(C(=O)c2nc(N3CCN(C(=O)N4N=CC[C@H]4c4cc(F)cc(F)c4)CC3)ncc2F)C1 [Compound 50, (S)-(5-(3,5-difluorophenyl)-4,5-dihydro-1H-pyrazol-1-yl)(4-(5-fluoro-4-(3-hydroxy-3-methylazetidine-1-carbonyl)pyrimidin-2-yl)piperazin-1-yl)methanone] | 0.0001 to 0.1 µM
6 | COC1CN(C(=O)c2nc(N3CCN(C(=O)N4N=CC[C@H]4c4cc(F)cc(F)c4)CC3)ncc2F)C1 [Compound 21, (S)-(5-(3,5-difluorophenyl)-4,5-dihydro-1H-pyrazol-1-yl)(4-(5-fluoro-4-(3-methoxyazetidine-1-carbonyl)pyrimidin-2-yl)piperazin-1-yl)methanone] | 0.0001 to 0.1 µM
7 | NC(=O)c1ccnc(N2CCN(C(=O)N3N=CC[C@H]3c3ccccc3)CC2)n1 [Compound 41, (S)-2-(4-(5-phenyl-4,5-dihydro-1H-pyrazole-1-carbonyl)piperazin-1-yl)pyrimidine-4-carboxamide] | 0.0001 to 0.1 µM
8 | COC1CN(C(=O)c2nc(N3CCN(C(=O)N4N=CC[C@H]4c4cc(F)cc(C#N)c4)CC3)ncc2Cl)C1 [Compound 63, (S)-3-(1-(4-(5-chloro-4-(3-methoxyazetidine-1-carbonyl)pyrimidin-2-yl)piperazin-1-carbonyl)-4,5-dihydro-1H-pyrazol-5-yl)-5-fluorobenzonitrile] | 0.0001 to 0.1 µM
9 | COC1CN(C(=O)c2nc(N3CCN(C(=O)N4N=CC[C@H]4c4cncc(F)c4)CC3)ncc2Cl)C1 [Compound 64, (S)-(5-chloro-2-(4-(5-(5-fluoropyridin-3-yl)-4,5-dihydro-1H-pyrazole-1-carbonyl)piperazin-1-yl)pyrimidin-4-yl)(3-methoxyazetidin-1-yl)methanone] | 0.1 to 1 µM
10 | N#CC=C1CN(C(=O)c2nc(N3CCN(C(=O)N4N=CC[C@H]4c4cc(F)cc(F)c4)CC3)ncc2F)C1 [Compound 57, (S)-2-(1-(2-(4-(5-(3,5-difluorophenyl)-4,5-dihydro-1H-pyrazole-1-carbonyl)piperazin-1-yl)-5-fluoropyrimidine-4-carbonyl)azetidin-3-ylidene)acetonitrile] | 0.0001 to 0.1 µM
11 | N#Cc1cc(F)cc([C@@H]2CC=NN2C(=O)N2CCN(c3ncc(F)c(C(=O)N4CC(C#N)C4)n3)CC2)c1 [Compound 54, (S)-1-(2-(4-(5-(3-cyano-5-fluorophenyl)-4,5-dihydro-1H-pyrazole-1-carbonyl)piperazin-1-yl)-5-fluoropyrimidine-4-carbonyl)azetidine-3-carbonitrile] | 0.0001 to 0.1 µM
12 | O=C(c1nc(N2CCN(C(=O)N3N=CC[C@H]3c3cc(F)cc(F)c3)CC2)ncc1F)N1CC(OC(F)(F)F)C1 [Compound 60, (S)-(5-(3,5-difluorophenyl)-4,5-dihydro-1H-pyrazol-1-yl)(4-(5-fluoro-4-(3-(trifluoromethoxy)azetidine-1-carbonyl)pyrimidin-2-yl)piperazin-1-yl)methanone] | 0.0001 to 0.1 µM
13 | COC1CN(C(=O)c2nc(N3CCN(C(=O)N4N=CC[C@H]4c4cncc(C#N)c4)CC3)ncc2F)C1 [Compound 53, (S)-5-(1-(4-(5-fluoro-4-(3-methoxyazetidine-1-carbonyl)pyrimidin-2-yl)piperazine-1-carbonyl)-4,5-dihydro-1H-pyrazol-5-yl)nicotinonitrile] | 0.0001 to 0.1 µM
14 | N#Cc1cc(F)cc([C@@H]2CC=NN2C(=O)N2CCN(c3ncc(F)c(C(=O)N4CC(OCC5CC5)C4)n3)CC2)c1 [Compound 59, (S)-3-(1-(4-(4-(3-(cyclopropylmethoxy)azetidine-1-carbonyl)-5-fluoropyrimidin-2-yl)piperazine-1-carbonyl)-4,5-dihydro-1H-pyrazol-5-yl)-5-fluorobenzo nitrile] | 0.0001 to 0.1 µM
15 | CCOC1CN(C(=O)c2nc(N3CCN(C(=O)N4N=CC[C@H]4c4cc(F)cc(F)c4)CC3)ncc2F)C1 [Compound 23, (S)-(5-(3,5-difluorophenyl)-4,5-dihydro-1H-pyrazol-1-yl)(4-(4-(3-ethoxyazetidine-1-carbonyl)-5-fluoropyrimidin-2-yl)piperazin-1-yl)methanone] | 0.0001 to 0.1 µM
16 | O=C(O)c1ccnc(N2CCN(C(=O)N3N=CC[C@H]3c3cc(F)cc(F)c3)CC2)n1 [Compound 44, (S)-2-(4-(5-(3,5-difluorophenyl)-4,5-dihydro-1H-pyrazole-1-carbonyl)piperazin-1-yl)pyrimidine-4-carboxylic acid] | 1 to 10 µM
17 | COC1CN(C(=O)c2nc(N3CCN(C(=O)N4N=CCC4c4cncc(Cl)c4)CC3)ncc2F)C1 (centres unmarked) [Compound 66, (5-(5-chloropyridin-3-yl)-4,5-dihydro-1H-pyrazol-1-yl)(4-(5-fluoro-4-(3-methoxyazetidine-1-carbonyl)pyrimidin-2-yl)piperazin-1-yl)methanone] | 0.0001 to 0.1 µM
18 | COC1(C)CN(C(=O)c2nc(N3CCN(C(=O)N4N=CC[C@H]4c4cc(F)cc(F)c4)CC3)ncc2F)C1 [Compound 22, (S)-(5-(3,5-difluorophenyl)-4,5-dihydro-1H-pyrazol-1-yl)(4-(5-fluoro-4-(3-methoxy-3-methylazetidine-1-carbonyl)pyrimidin-2-yl)piperazin-1-yl)methanone] | 0.0001 to 0.1 µM
19 | O=C(c1nc(N2CCN(C(=O)N3N=CC[C@H]3c3cc(F)cc(F)c3)CC2)ncc1F)N1CC(CN2CCCC2)C1 [Compound 10, (5-(3,5-difluorophenyl)-4,5-dihydro-1H-pyrazol-1-yl)(4-(5-fluoro-4-(3-(pyrrolidin-1-ylmethyl)azetidine-1-carbonyl)pyrimidin-2-yl)piperazin-1-yl)methanone] | 0.0001 to 0.1 µM
20 | CCN(C)C(=O)c1nc(N2CCN(C(=O)N3N=CC[C@H]3c3cc(F)cc(F)c3)CC2)ncc1F [Compound 6, (S)-2-(4-(5-(3,5-difluorophenyl)-4,5-dihydro-1H-pyrazole-1-carbonyl)piperazin-1-yl)-N-ethyl-5-fluoro-N-methylpyrimidine-4-carboxamide] | 0.0001 to 0.1 µM

From patent US12612388B2, “Receptor-interacting protein 1 inhibitors including piperazine heterocyclic amide ureas” (SIRONAX LTD., priority 2020, dated 2026)
